Source: patent publication US9572858B2, “Composition for treating and preventing benign prostatic hyperplasia” (GemVax & KAEL Co., Ltd., priority 2013, dated 2017)

Columns and labels:
[1] = tested on: BPH induced animal model (sulpiride); test: Organ weights in sulpiride BPH induced animal model; assay type: in vivo, Sprague-Dawley male rats; conditions: rat
5α-reductase = test: Expression of 5α-reductase in ventral prostate by RT-PCR, BPH induced animal model; assay type: in vivo, Sprague-Dawley male rats; conditions: sulpiride 40 mg/kg alone, 60 days, rat
Description: As androgen, the most commonly used hormone in the body is testosterone. But the most powerful hormone of androgens related to development of prostate is 5α-dihydrotestosterone (DHT) which is made by combining testosterone and 5α-reductase. […] It is reported that DHT made by hyperprolactinemia make more gaining weight in lateral lobe than dorsal lobe or ventral lobe of prostate. Based on this fact, the experiment using PEP1 according to example 1 only or co-administration with other test material to BPH induced animal model was done as follows. […] Also before administrating the test materials, the body weights of every animal were measured and recorded.
Sulpiride as test material was purchased from Sigma Chemical Co. (St. Louis, Mo., USA) and used for the experiment. […] The dosage of the administration was calculated based on the concentration of 0.5 ml/kg with reflecting the body weight measured every day. […]
After administrating sulpiride with test materials for 60 days and collecting ventral prostate, the effect to the expression of 5α-reductase was measured by using RT-PCR. […] After then RNA was quantified by using spectrophotometer. […] For the control of quantification in electrophoresis, GAPDH whose expression level is not changed by other drugs was used. […]

[2] = Sulpiride 40 mg/kg 60 days + Finasteride 5 mg/kg
[3] = Sulpiride 40 mg/kg 60 days alone (BPH induction)

## CC(C)(C)NC(=O)[C@H]1CC[C@H]2[C@@H]3CC[C@H]4NC(=O)C=C[C@]4(C)[C@H]3CC[C@]12C [Finasteride, finasteride]
[1]; [2]
  Prostate index: 0.157
  Weight of prostate: 0.75 ± 0.06 g
  Weight of seminal vesicle: 0.49 ± 0.02 g

## CCN1CCCC1CNC(=O)c1cc(S(N)(=O)=O)ccc1OC (stereo not shown) [Sulpiride, sulpiride]
5α-reductase
  Level of 5α-reductase expression in ventral prostate (RT-PCR): increased
[1]; [3]
  Weight of prostate: 1.59 ± 0.05 g
  Weight of seminal vesicle: 1.23 ± 0.11 g
[1]; Sulpiride 40 mg/kg 60 days alone (BPH induction), equation Final prostate weight/body weight
  Prostate index: 0.303
